Results on 1 substance are retold here after US9939451B2, “Biomarker for detecting white matter stroke, containing toll-like receptor 2, and medical use of toll-like receptor 2” (AJOU UNIVERSITY INDUSTRY—ACADEMIC COOPERATION FOUNDATION, priority 2013, dated 2018).

In assay [1] the test system is primary OL (oligodendrocyte) cultures exposed to oxygen-glucose deprivation. The experiment in a line: LDH assay of OGD-induced OL death. The class given is cell-based, mouse. The procedure: Primary OL cultures were prepared from cortices of newborn C57BL/6 on postnatal day 0 (P0) to postnatal day 1 (P1), and/or TLR2 (−/−) mouse, according to the method reported in Journal of Visualized Experiment by O'Meara R. After 9-10 days in vitro, confluent mixed glial cultures were obtained. The mixed glial cultures were shaken at a temperature of about 37° C. for about 1 hour at a speed of about 200 rpm, so as to remove microglia. Afterwards, a second cycle of shaking was then performed at a temperature of about 37° C. for about 18 hours at a speed of about 250 rpm, so as to remove OLs from astrocyte monolayer. The cell suspensions obtained therefrom was plated on a bacterial grade Petri dish for about 1 hour to separate OLs from remaining microglia and astrocytes. […]
For quantification of OGD-induced OL death, LDH assay was performed using an assay kit (Takara Bio, Inc., Madison, Wis.) to measure LDH generated in a bathing medium in association with damaged OL at 24 hours after the onset of OGD challenge. The LDH level corresponding to typical cell death was determined in sister cultures exposed 1.5% Triton X-100 for 24 hours (complete cell death, CD). Baseline (BL) LDH levels were determined in a condition of only medium without OLs. Percentage of cell death in each experimental condition was calculated using a following formula. {% of OL death=(experimental value−BL)×100/(CD−BL)}

Assay [2] has the same test system. Description: TUNEL staining of OGD-induced OL death. The class given is cell-based, mouse. The note with it: Pam3CSK4 1 μg/ml added after 2 hours OGD; FIG. 5. Here is the method:
Primary OL cultures were prepared from cortices of newborn C57BL/6 on postnatal day 0 (P0) to postnatal day 1 (P1), and/or TLR2 (−/−) mouse, according to the method reported in Journal of Visualized Experiment by O'Meara R. After 9-10 days in vitro, confluent mixed glial cultures were obtained. The mixed glial cultures were shaken at a temperature of about 37° C. for about 1 hour at a speed of about 200 rpm, so as to remove microglia. Afterwards, a second cycle of shaking was then performed at a temperature of about 37° C. for about 18 hours at a speed of about 250 rpm, so as to remove OLs from astrocyte monolayer. The cell suspensions obtained therefrom was plated on a bacterial grade Petri dish for about 1 hour to separate OLs from remaining microglia and astrocytes. Purified OLs were plated on a poly-D-lysine coated 12 well (1.5×10^5 cells/well) or 96 well (1.5×10^4 cells/well) or on a 9 mm coverslip (1.0×10^4 cells/coverslip).
For OGD challenge, the purified OLs were cultured for about 1 day in a serum-free differentiation medium, washed with PBS three times, and then, transferred to an anaerobic chamber (Forma Scientific, Marietta, Ohio). […] The cells were exposed to OGD for about 2 hours, and then, transferred to a normoxic chamber. […]

On to Pam3CSK4, for which the “OGD-induced OL death (LDH release)” value in assay [1] (Pam3CSK4 1 μg/ml added after 2 hours OGD, LDH measured 24 hours after onset of OGD, FIG. 3) is reported as “reduced the extent of OGD-induced OL death”. Also, in assay [1] (TLR2 agonist applied after OGD to OLs cultured from WT mouse, readout not given), the “OGD-induced OL death (summary statement)” value is “substantially reduced OGD-induced OL death”. In addition, in assay [2], the “OGD-induced OL death (TUNEL staining)” value is “reduced the extent of OGD-induced OL death”.
